Data published in US11439607B2 (Paracelsus Neuroscience I, LLC, priority 2016, dated 2022).
“Also recorded” adds a separate entry of the source. Read-outs that look alike come from different tables or passages of the source.

Experiments:
KCa3.1 = molecular target: T1, KCa3.1 (Rattus norvegicus, UniProt Q9QYW1); assay: Whole cell patch clamp of K+ currents in rat primary microglia; type: cell-based; details: read-out: IC50, inhibition of microglial K+ current
T1 construct: K^+ currents were recorded from primary microglia; endogenous in cells; host or cells: primary rat (cortical) microglia
Experimental: Primary rat microglia were plated at a density of 300,000/35 mm dish for 24 hours. Whole cell patch clamp recordings were performed using an EPC9 patch-clamp amplifier and PatchMaster software (HEKA Instruments Inc.). The cell's membrane potential was held at −60 mV. External solution contained (in mM): 140 NaCl, 4 KCl, […], 1.8 CaCl2, 10 HEPES, 10 Glucose, pH 7.4. Patch solution contained (in mM): 140 […], 11 EGTA, 2 MgCl2, 10 HEPES, pH 7.2. Drugs were applied by gravity and selected with a capillary tube placed in close proximity to the recording dish. BzATP (Sigma-Aldrich, St. Louis, Mo.) was applied for 10 seconds.
KCa3.1 is highly expressed on microglia in vitro (Kaushal et al., 2007). […] Some residual K^+ current still remained which was most likely not KCa3.1-sensitive (Kettenmann et al., 2011)

[1] = Rat screening pharmacokinetics: plasma, brain, CSF exposure; type: in vivo; details: Screening PK, 10 mg/kg PO; for CSF / Free Brain / Free Plasma / concentration at 1 h / concentration at 4 h: 10 mg/kg; for concentration at 1 h / concentration at 4 h: po
Experimental: Male Sprague-Dawley rats (Crl:SD, Charles River) weighing 200-350 g were dosed to determine tissue exposure at 10 mg/kg p.o. (n=3) for screening pharmacokinetics (PK), and at 10, 30 and 100 mg/kg p.o. for the CCI studies (n=3 from each treatment group taken from the last arm of study). […] The rats were then decapitated and trunk blood was collected to in K3EDTA containing tubes. Plasma samples were generated by centrifugation (3500×g), and stored frozen at −20° C. until bioanalysis. The brains were harvested immediately following blood collection and stored frozen until bioanalysis at −20° C. For CCI animals, the plasma and brain harvests as described for the screening PK, although the tissue collection was initiated after the behavioral assessment was completed, approximately 4 hours 15 minutes after dosing. For spinal column harvest, a 20-gauge needle on a 10 ml syringe filled with cold saline was inserted into the spinal cord. The saline was used to flush the spinal column out. The spinal column tissues were then stored frozen at −20° C. prior to exposure measurements.
Prior to analysis, the brain and spinal cord samples were thawed at room temperature, weighed and homogenized using a homogenizing solution (IPA/H2O/DMSO; 30:50:20) at a ratio of 3/1 (ml/g) to generate tissue homogenates. An aliquot of 50 μl plasma, or 50 μl brain and spinal cord homogenates is mixed with 150 μl of a DMSO/ACN (20:80) solution that contains an internal standard (50 ng/ml). The diluted plasma, brain and spinal cord sample is then centrifuged (˜500 g for 15 min at 10° C.), supernatant is removed and then injected (10 μl) onto LC/MS/MS system for analysis. An Atlantis T3 column 2.6μ C18, 50×2.1 mm (Waters, Mass.) was used for analytical separation of the acid. A 6-minute mobile phase gradient was employed with mobile phase A (0.1% formic acid in water) ramping down from 99% to 1% (0-4 minutes), and then ramping back up to 99% (4-6 minutes), while ramping up solvent B (1% formic acid in ACN), from 1% to 99% (0-4 minutes), and then ramping down to 1% (4-6 minutes). Spectra was acquired in positive SRM mode with the parent mass of 324 and a daughter ion of 228.

[2] = Plasma and brain free fraction by equilibrium dialysis; type: in vitro ADME, rat; set-up: dose or concentration left out as unconfirmed
Experimental: Briefly, naive plasma and brain tissues were homogenized in 3× and 4× w/v in homogenization buffer (50:30:20 H2O:IPA:DMS0), respectively. […] Following equilibration, the buffer sample was fortified with a fixed volume of blank tissue homogenate and the tissue sample was fortified with a fixed volume of buffer. Protein precipitation was performed with ice cold acetonitrile in the presence of an analytical internal standard. The supernatants were quantified for senicapoc using LC-MS/MS as described earlier.

rats = assay: Rat locomotor activity; type: in vivo; details: 4 hours after dosing
Source text: Male Sprague-Dawley rats (Charles River) weighing 225-275 g on the test day were divided into groups of 8 animals per treatment. […] Following the pre-treatment time, rats were placed into 50×25×20 cm cages lined with crushed corn cob bedding (Bed-o'Cobs ¼ inch, Andersons Lab Bedding, Maumee, Ohio, USA). The cages were positioned in a Smart Frame Cage Rack (Kinder Scientific, Poway, Calif., USA) outfitted with an infrared beam array (7 X×15 Y). Rats were allowed to move freely within the cage for 1 hour with beam breaks continuously recorded using MotorMonitor™ (Kinder Scientific,). Time course and cumulative data were analyzed with Prism 4 (GraphPad, La Jolla, Calif.). One-way ANOVA with Tukey's Multiple Comparison Post-Hoc Test was used for statistical analysis.

μ-opioid receptors = molecular target: T2, μ-opioid receptors (Homo sapiens, UniProt P35372); assay: Off target screen (CEREP panel) and dose response; type: binding
T2 construct: CEREP (contract screening)

Bennett model = Bennett model - Paw pressure test; type: in vivo, rodent; details: Senicapoc 100 mg/kg PO, 240 min after treatment
Experimental: (§1) Depending on the test, the percentage of activity was calculated from the mean value of the vehicle-treated animals and compared to naïve animals, control paw or cut-off value.

Carrageenan model = assay: Carrageenan - Paw pressure test; type: in vivo, rodent; details: Senicapoc 100 mg/kg PO, 240 min after treatment
Experimental: as §1

TNBS model = assay: TNBS - Colorectal distension; type: in vivo, rodent; details: Senicapoc 100 mg/kg PO, 240 min after treatment
Experimental: as §1

T2 sequence (P35372 whole entry): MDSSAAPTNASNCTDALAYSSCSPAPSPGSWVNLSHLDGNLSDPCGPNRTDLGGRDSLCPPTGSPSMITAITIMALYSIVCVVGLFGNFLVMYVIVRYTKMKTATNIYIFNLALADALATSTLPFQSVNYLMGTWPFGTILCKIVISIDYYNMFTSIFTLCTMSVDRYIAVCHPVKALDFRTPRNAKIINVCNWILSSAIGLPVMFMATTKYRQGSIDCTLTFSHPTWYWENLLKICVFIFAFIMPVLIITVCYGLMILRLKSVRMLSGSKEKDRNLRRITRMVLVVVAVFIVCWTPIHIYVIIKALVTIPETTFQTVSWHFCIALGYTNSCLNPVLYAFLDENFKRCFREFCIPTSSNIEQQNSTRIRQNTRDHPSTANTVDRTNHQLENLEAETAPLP

NC(=O)C(c1ccccc1)(c1ccc(F)cc1)c1ccc(F)cc1 [Senicapoc]
IC50 (KCa3.1): 0.01 µM
CSF ([1]; 1 h, mean ± SD): 25 ± 16 nM
Free Brain ([1]; 1 h, UBBr = 0.008): 37 ± 16 nM
Free Plasma ([1]; 1 h, UBP = 0.027): 17 ± 9 nM
CSF ([1]; 4 h, mean ± SD): 121 ± 62 nM
Free Brain ([1]; 4 h, UBBr = 0.008): 136 ± 50 nM
Free Plasma ([1]; 4 h, UBP = 0.027): 65 ± 22 nM
concentration at 1 h ([1]; male, Sprague-Dawley, rat, brain, 1 h, mean ± SD, read-out: Brain): 4660 ± 1990 nM
concentration at 1 h ([1]; male, Sprague-Dawley, rat, brain, 1 h, UBBr = 0.008, read-out: Free Brain): 37 nM
concentration at 4 h ([1]; male, Sprague-Dawley, rat, brain, 4 h, mean ± SD, read-out: Brain): 16900 ± 6040 nM
concentration at 4 h ([1]; male, Sprague-Dawley, rat, brain, 4 h, UBBr = 0.008, read-out: Free Brain): 136 nM
Kp at 1 h ([1]; male, Sprague-Dawley, rat, brain, 1 h, read-out: Free Brain/Free Plasma): 2.2
Kp at 4 h ([1]; male, Sprague-Dawley, rat, brain, 4 h, read-out: Free Brain/Free Plasma): 2.1
concentration at 1 h ([1]; male, Sprague-Dawley, rat, plasma, 1 h, mean ± SD, read-out: Plasma): 637 ± 322 nM
concentration at 1 h ([1]; male, Sprague-Dawley, rat, plasma, 1 h, UBP = 0.027, read-out: Free Plasma): 17 nM
concentration at 4 h ([1]; male, Sprague-Dawley, rat, plasma, 4 h, mean ± SD, read-out: Plasma): 2390 ± 748 nM
concentration at 4 h ([1]; male, Sprague-Dawley, rat, plasma, 4 h, UBP = 0.027, read-out: Free Plasma): 65 nM
concentration at 1 h ([1]; male, Sprague-Dawley, rat, 1 h, mean ± SD, read-out: CSF): 25 nM
concentration at 4 h ([1]; male, Sprague-Dawley, rat, 4 h, mean ± SD, read-out: CSF): 121 nM
fraction unbound at 2.5 h ([2]; brain homogenate (4x w/v in homogenization buffer), rat brain homogenate, read-out: In vitro rat brain free fraction (UBBr)): 0.008
fraction unbound at 2.5 h ([2]; plasma (diluted 3x w/v in homogenization buffer), rat plasma, read-out: In vitro rat plasma free fraction (UBP)): 0.027
Effect on locomotor activity (total distance traveled) (rats; 30 mg/kg p.o.): no effect; also recorded: did not significantly affect
Effect on locomotor activity (total distance traveled) (rats; 100 mg/kg p.o.): no effect; also recorded: did not significantly affect
inhibition at 10 µM (μ-opioid receptors; 10 μM): > 50%
IC50 (μ-opioid receptors; full dose response curve, functional testing): 12 µM
% of activity vs. vehicle (Bennett model): 69%
% of activity vs. vehicle (Carrageenan model): 116%
% of activity vs. vehicle (TNBS model): 50%
